Each structure is given as a SMILES string.

Consider 60 compounds from ChEMBL document CHEMBL3045108, “Advanced QSRR models of toxicological screening of basic drugs in whole blood by UPLC-TOFMS” (Med Chem Res, 2012).

The test system of this data set is Blood. The experiment in a line: Drug level in Homo sapiens (human) whole blood assessed as retention time by UPLC-TOF-MS analysis.
With `CN(C)CCc1c[nH]c2ccccc12`, the Retention_time turned out to be 2.89 min.
Under `CNC(C)Cc1ccc(OC)cc1` (stereo not given) stands 3.14 min.
Next, `CN1CCC[C@@H]1Cc1c[nH]c2ccc(CCS(=O)(=O)c3ccccc3)cc12`: 5.21 min.
Next, `CCCc1nc(C)c2c(=O)[nH]c(-c3cc(S(=O)(=O)N4CCN(CC)CC4)ccc3OCC)nn12`: 5.17 min.
As for `CNCCCC1(c2ccc(F)cc2)OCc2cc(C#N)ccc21` (stereo not given), the Retention_time is listed as 5.47 min.
Next, `CCCc1nn(C)c2c(=O)[nH]c(-c3cc(S(=O)(=O)N4CCN(C)CC4)ccc3OCC)nc12`: 5.54 min.
For the compound `CC(C=C(c1ccccc1)c1ccccc1)N(C)C` (stereo not given), the Retention_time came out at 5.72 min.
Under `CCNCCN1C(=O)CN=C(c2ccccc2F)c2cc(Cl)ccc21` stands 6.19 min; under `NC1=Nc2ccc(Cl)cc2C(c2ccccc2)=[N+]([O-])C1`, 4.85 min.
Under `CCC(Cc1ccc2c(c1)OCO2)NC` (stereo not given) stands 3.61 min.
Under `COc1cc(CCN)c(OC)cc1Br` stands 4.52 min; under `COc1cc(CCN)c(OC)cc1I`, 4.92 min; under `CN(C)c1nc(N)c(C(=O)NC(=N)N)nc1Cl`, 3.54 min.
As to `CCOC(=O)[C@H](CCc1ccccc1)N[C@@H](C)C(=O)N1CCC[C@H]1C(=O)O`, the Retention_time is reported as 5.23 min.
Under `COc1ccc(N2CCNCC2)cc1` stands 2.59 min; under `COc1ccc(CCN(C)CCCC(C#N)(c2ccc(OC)c(OC)c2)C(C)C)cc1OC` (stereo not given), 5.95 min; under `CN1C(=O)CN=C(c2ccccc2F)c2cc(N)ccc21` [7-AMINO-FLUNITRAZEPAM], 4.02 min.
Next, `Nc1ccc2c(c1)C(c1ccccc1)=NCC(=O)N2` [7-AMINO-NITRAZEPAM]: 2.26 min.
`Nc1ccc2c(c1)C(c1ccccc1Cl)=NCC(=O)N2` [7-AMINOCLONAZEPAM]: the Retention_time stood at 3.39 min.
Next, `CCCC(=O)Nc1ccc(OCC(O)CNC(C)C)c(C(C)=O)c1` (stereo not given) [ACEBUTOLOL]: 4.07 min; `CC(=O)c1ccc2c(c1)N(CCCN(C)C)c1ccccc1S2` [ACEPROMAZINE]: 5.67 min.
Under `Cc1ccc(/C(=C\CN2CCCC2)c2cccc(/C=C/C(=O)O)n2)cc1` [ACRIVASTINE] stands 5.64 min; under `Cc1nnc2n1-c1ccc(Cl)cc1C(c1ccccc1)=NC2` [ALPRAZOLAM], 6.09 min; under `CCN1CCCC1CNC(=O)c1cc(S(=O)(=O)CC)c(N)cc1OC` (stereo not given) [AMISULPRIDE], 3.4 min.
Next, `CN(C)CCC=C1c2ccccc2CCc2ccccc21` [AMITRIPTYLINE]: 5.86 min; `CCOC(=O)C1=C(COCCN)NC(C)=C(C(=O)OC)C1c1ccccc1Cl` (stereo not given) [AMLODIPINE]: 5.94 min; `CC(N)Cc1ccccc1` (stereo not given) [AMPHETAMINE]: 2.6 min.
Regarding `O=C1CCc2ccc(OCCCCN3CCN(c4cccc(Cl)c4Cl)CC3)cc2N1` [ARIPIPRAZOLE], the Retention_time was 5.9 min.
Next, `CN(C)C(=O)Oc1cc(OC(=O)N(C)C)cc(C(O)CNC(C)(C)C)c1` (stereo not given) [BAMBUTEROL]: 4.84 min; `CCOC(=O)c1ccc(N)cc1` [BENZOCAINE]: 5.15 min; `C[C@@H](Cc1ccccc1)N(C)Cc1ccccc1` [BENZPHETAMINE]: 5.24 min.
Next, `OC(CCN1CCCCC1)(c1ccccc1)C1CC2C=CC1C2` (stereo not given) [BIPERIDEN]: 5.78 min.
Next, `CC(C)NCC(O)COc1ccc(COCCOC(C)C)cc1` (stereo not given) [BISOPROLOL]: 5.06 min.
For `O=C1CN=C(c2ccccn2)c2cc(Br)ccc2N1` [BROMAZEPAM], the Retention_time came to 5.33 min.
Next, `Cc1nnc2n1-c1sc(Br)cc1C(c1ccccc1Cl)=NC2` [BROTIZOLAM]: 6.27 min; `CCCCN1CCCCC1C(=O)Nc1c(C)cccc1C` (stereo not given) [BUPIVACAINE]: 5.08 min; `CO[C@]12CC[C@@]3(C[C@@H]1[C@](C)(O)C(C)(C)C)[C@H]1Cc4ccc(O)c5c4[C@@]3(CCN1CC1CC1)[C@H]2O5` [BUPRENORPHINE]: 5.59 min.
For the compound `O=C1CC2(CCCC2)CC(=O)N1CCCCN1CCN(c2ncccn2)CC1` [BUSPIRONE], the Retention_time came out at 5.14 min.
In the case of `COc1ccccc1OCCNCC(O)COc1cccc2[nH]c3ccccc3c12` (stereo not given) [CARVEDILOL], the Retention_time worked out at 5.71 min.
Next, `C[C@H](N)[C@@H](O)c1ccccc1` [CATHINE]: 2.05 min; `C[C@H](N)C(=O)c1ccccc1` [CATHINONE]: 2.09 min; `CNC1=Nc2ccc(Cl)cc2C(c2ccccc2)=[N+]([O-])C1` [CHLORDIAZEPOXIDE]: 4.94 min.
As for `Clc1cccc(N2CCNCC2)c1` [CHLOROPHENYLPIPERAZINE], the Retention_time was found to be 4.08 min.
Under `CN(C)CCCN1c2ccccc2Sc2ccc(Cl)cc21` [CHLORPROMAZINE] stands 6.12 min; under `CN(C)CC/C=C1/c2ccccc2Sc2ccc(Cl)cc21` [CHLORPROTHIXENE], 6.18 min.
`C(=C\c1ccccc1)/CN1CCN(C(c2ccccc2)c2ccccc2)CC1` [CINNARIZINE]: the Retention_time was determined as 6.57 min.
Under `CN(C)CCCC1(c2ccc(F)cc2)OCc2cc(C#N)ccc21` (stereo not given) [CITALOPRAM] stands 5.53 min; under `CN1C(=O)CC(=O)N(c2ccccc2)c2cc(Cl)ccc21` [CLOBAZAM], 6.28 min.
Next, `CN(C)CCCN1c2ccccc2CCc2ccc(Cl)cc21` [CLOMIPRAMINE]: 6.22 min.
Next, `O=C1CN=C(c2ccccc2Cl)c2cc([N+](=O)[O-])ccc2N1` [CLONAZEPAM]: 5.99 min; `Clc1cccc(Cl)c1N=C1NCCN1` [CLONIDINE]: 2.44 min.
For the compound `CN1CCN(C2=Nc3cc(Cl)ccc3Nc3ccccc32)CC1` [CLOZAPINE], the Retention_time is 5.1 min.
Under `COC(=O)[C@H]1[C@@H](OC(=O)c2ccccc2)C[C@@H]2CC[C@H]1N2C` [COCAINE] stands 4.46 min; under `COc1ccc2c3c1O[C@H]1[C@@H](O)C=C[C@H]4[C@@H](C2)N(C)CC[C@@]341` [CODEINE], 2.5 min.
Consider `CN1CCN(C(c2ccccc2)c2ccccc2)CC1` [CYCLIZINE], for which the Retention_time is on record as 5.52 min.
Next, `O=C1C[N+]([O-])=C(c2ccccc2)c2cc(Cl)ccc2N1` [DEMOXEPAM]: 5.62 min; `COc1ccc2c(c1)[C@]13CCCC[C@@H]1[C@H](C2)N(C)CC3` [DEXTROMETHORPHAN]: 5.38 min.
Under `CN1CC[C@@]23CCCC[C@@H]2[C@@H]1Cc1ccc(O)cc13` [DEXTRORPHAN] stands 3.82 min.
Under `CCN(CC)C(C)C(=O)c1ccccc1` (stereo not given) [DIETHYLPROPION] stands 3.05 min; under `COc1ccc([C@@H]2Sc3ccccc3N(CCN(C)C)C(=O)[C@@H]2OC(C)=O)cc1` [DILTIAZEM], 5.63 min.
